We go through eleven molecules from ChEMBL document CHEMBL1201862, “PubChem BioAssay data set” (2004).

Assay in all cases: inhibition of tumour cell growth, NCI panel, 48 h
In assay [1] the test system is NCI-H460.
The subject of assay [2] is Malme-3M.
The subject of assay [3] is SW-620.
Assay [4] relates to TK-10.
The test system of assay [5] is SK-OV-3.
In assay [6] the test system is SF-295.
In assay [7] the test system is HCC 2998.
In assay [8] the test system is SF-268.
In assay [9] the test system is SF-539.
For assay [10], the system named is ACHN.
Assay [11] relates to RPMI-8226.
Assay [12] deals with MOLT-4.
In assay [13] the test system is HCT-116.
The subject of assay [14] is SN12C.
In assay [15] the test system is LOX IMVI.
The subject of assay [16] is DMS-114.
The subject of assay [17] is UACC-62.
Assay [18] has as its system DU-145.
The test system of assay [19] is MDA-N.
Assay [20] has as its system SR.

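Cultured in 96-well plates, cells were exposed to test compound for 48 hours across five concentrations. GI50 marks 50% less growth.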 The source made the active and inactive calls. Rule as the data show it: active = GI50 up to about 1.1 µM and inactive = higher.

Consider `COC(=O)C1=C(O)C(O)=C(C(=O)OC)C1`, for which the GI50 in assay [1], in assay [2], in [3], in [4], in assay [5] and in assay [6] was > 100 µM (inactive) in each case. Moreover, the GI50 in assay [7], in assay [8], in assay [9], in assay [10], in assay [11] and in assay [12] was > 100 µM (inactive) in each case. The GI50 is > 100 µM (inactive) in assay [13]; > 100 µM (inactive) in [14]; > 100 µM (inactive) in assay [15]; > 100 µM (inactive) in assay [16]; 0.612 µM (active) in assay [17].
For `Nc1nc(S)nc2snnc12`, the GI50 in assay [18], in assay [1], in assay [2], in assay [3], in assay [4] and in assay [5] was > 100 µM (inactive) in each case. Moreover, the GI50 in assay [6], in assay [7], in assay [8], in assay [9], in assay [10] and in assay [19] was > 100 µM (inactive) throughout. In addition, the GI50 in assay [11], in assay [12], in assay [13], in assay [14], in assay [20] and in assay [15] was > 100 µM (inactive) in each case. Further, the GI50 in assay [17] is > 100 µM (inactive).
Turning to `O=C(CNc1ccc(Cl)cc1Cl)NC1C=Cc2ccc(S(=O)(=O)Nc3ccc(Cl)cc3Cl)cc2C1=O` (centres undefined), the GI50 in assay [18], in [1], in assay [2], in assay [3], in [4] and in [5] was > 100 µM (inactive) in each case. In addition, the GI50 in assay [6], in assay [7], in assay [8], in assay [9], in [10] and in assay [19] was > 100 µM (inactive) in each case. Besides, the GI50 was 11 µM (inactive) in assay [11]; > 100 µM (inactive) in [12]; > 100 µM (inactive) in [13]; > 100 µM (inactive) in assay [14]; > 100 µM (inactive) in [20]; > 100 µM (inactive) in assay [15]. Further, the GI50 in [17] was > 100 µM (inactive).
Turning to `COC(=O)c1cc2/c(=N/O)c3ccccc3sc2o1`, the GI50 in [18] is > 100 µM (inactive); in assay [1], 61 µM (inactive); in assay [2] it was > 100 µM (inactive); in [3], > 100 µM (inactive); in [4], > 100 µM (inactive); in assay [5], > 100 µM (inactive). Further, the GI50 in assay [6], in assay [7], in assay [8], in assay [9], in [10] and in assay [19] was > 100 µM (inactive) throughout. In addition, the GI50 in [11], in assay [12], in [13], in assay [14], in [20] and in [15] was > 100 µM (inactive) each time. The GI50 in assay [17] is > 100 µM (inactive).
Consider `CCOC(=O)c1ccc(-n2cnc(-c3ccc([N+](=O)[O-])cc3)c2)cc1`, for which the GI50 was > 100 µM (inactive) in assay [18]; > 100 µM (inactive) in assay [1]; 80.7 µM (inactive) in assay [2]; 75.7 µM (inactive) in [3]; 33.9 µM (inactive) in assay [4]; > 100 µM (inactive) in [5]. The GI50 was > 100 µM (inactive) in assay [6]; > 100 µM (inactive) in assay [7]; 56.2 µM (inactive) in assay [8]; > 100 µM (inactive) in [9]; > 100 µM (inactive) in [10]; > 100 µM (inactive) in assay [19]. Also, the GI50 was > 100 µM (inactive) in assay [11]; > 100 µM (inactive) in assay [12]; 31.4 µM (inactive) in assay [13]; > 100 µM (inactive) in assay [14]; > 100 µM (inactive) in assay [20]; > 100 µM (inactive) in [15]. Further, in [17], the GI50 was > 100 µM (inactive).
Take `O=C(O)c1c(CC(Cc2ccccc2)C(=O)O)ccc2c1CCC2` (centres undefined): the GI50 in assay [18], in assay [1], in [2], in [3], in assay [4] and in [5] was > 100 µM (inactive) throughout. Besides, the GI50 in assay [6], in assay [7], in [8], in assay [9], in assay [10] and in assay [19] was > 100 µM (inactive) in each case. Moreover, the GI50 in assay [11], in assay [12], in [13], in assay [14], in assay [20] and in assay [15] was > 100 µM (inactive) in each case. Further, in assay [17], the GI50 is 4.11 µM (inactive).
Turning to `C=C1CC(COc2ccc3c(C)c(Cl)c(=O)oc3c2)(c2ccccc2)OC1=O` (centres undefined), the GI50 in assay [18] is 3.01 µM (inactive); in [1], 8 µM (inactive); in [2], 1.67 µM (inactive); in assay [3], 0.69 µM (active); in assay [4], 1.53 µM (inactive); in assay [5] it was 5.92 µM (inactive). Besides, the GI50 in [6] was 7.13 µM (inactive); in assay [7], 1.71 µM (inactive); in assay [8] it was 4.46 µM (inactive); in assay [9] it was 3.38 µM (inactive); in assay [10], 2.86 µM (inactive); in assay [19], 2.07 µM (inactive). Moreover, the GI50 is 0.442 µM (active) in assay [11]; 0.805 µM (active) in [12]; 1.01 µM (active) in assay [13]; 6.1 µM (inactive) in [14]; 1.3 µM (inactive) in assay [20]; 0.887 µM (active) in assay [15]. Moreover, in [17], the GI50 is 1.74 µM (inactive).
In the case of `CCN(CC)CCOCCn1c2c(c3ccccc31)CCCC2`, the GI50 in assay [18] was 30.9 µM (inactive); in [1], 22.8 µM (inactive); in assay [2], 15.6 µM (inactive); in assay [3], 17.1 µM (inactive); in assay [4], 19.1 µM (inactive); in assay [5], 27.4 µM (inactive). In addition, the GI50 is 38.5 µM (inactive) in assay [6]; 16.8 µM (inactive) in assay [7]; 36.1 µM (inactive) in assay [8]; 16.6 µM (inactive) in [9]; 19.1 µM (inactive) in [10]; 17.2 µM (inactive) in [19]. In addition, the GI50 was 20.4 µM (inactive) in assay [11]; 15.8 µM (inactive) in [12]; 15.8 µM (inactive) in assay [13]; 18.3 µM (inactive) in assay [14]; 16.3 µM (inactive) in assay [20]; 19.5 µM (inactive) in assay [15]. Moreover, the GI50 in assay [17] was 17 µM (inactive).
As to `COc1ccccc1NC(=O)c1nc2ccc([N+](=O)[O-])cc2nc1C`, the GI50 in assay [1], in assay [2], in assay [3], in assay [4], in assay [5] and in assay [7] was > 100 µM (inactive) in each case. For the same molecule, the GI50 in assay [8], in [9], in assay [10], in assay [11], in assay [12] and in assay [13] was > 100 µM (inactive) in each case. For the same molecule, the GI50 in assay [14], in [15], in assay [16] and in [17] was > 100 µM (inactive) each time.
On to `COC(=O)C1=C(C)NC(C)=C([N+](=O)[O-])C1c1cccc(N=O)c1` (centres undefined), for which the GI50 in assay [18] was 15.2 µM (inactive); in assay [1] it was 16.5 µM (inactive); in assay [2] it was 12.5 µM (inactive); in assay [3] it was 3.58 µM (inactive); in assay [4], 12.8 µM (inactive); in [5] it was 21.9 µM (inactive). Besides, the GI50 is 21.7 µM (inactive) in [6]; 18.9 µM (inactive) in [7]; 17.5 µM (inactive) in [8]; 16.8 µM (inactive) in [9]; 12.3 µM (inactive) in assay [10]; 10 µM (inactive) in assay [19]. The GI50 in assay [11] is 4.29 µM (inactive); in assay [12], 3.18 µM (inactive); in assay [13] it was 10.8 µM (inactive); in assay [14], 19.7 µM (inactive); in [20] it was 3.36 µM (inactive); in assay [15], 16.1 µM (inactive). Besides, the GI50 in assay [17] is 15.5 µM (inactive).
Regarding `O=C(CN1CCCCC1)c1ccc2c(c1)Sc1ccccc1O2`, the GI50 in [18] was 20.9 µM (inactive); in assay [1], 14.1 µM (inactive); in assay [2], 17.6 µM (inactive); in [3], 17.8 µM (inactive); in assay [4], 18.9 µM (inactive); in [5], 15.5 µM (inactive). The GI50 in assay [6] was 15.7 µM (inactive); in [7] it was 15.5 µM (inactive); in [8], 17.5 µM (inactive); in [9], 14.3 µM (inactive); in assay [10], 14.1 µM (inactive); in assay [19] it was 15.8 µM (inactive). For the same molecule, the GI50 in [11] is 30.8 µM (inactive); in assay [12], 23.1 µM (inactive); in assay [13], 14.4 µM (inactive); in assay [14], 19.2 µM (inactive); in assay [20] it was 18.4 µM (inactive); in assay [15] it was 10.2 µM (inactive). The GI50 in assay [17] is 11.5 µM (inactive).
